Data published in the RepoRT retention time repository.

assay: HILIC, HILICON iHILIC-(P) Classic, HILIC, PEEK, 100 × 2.1 mm, 5 µm, 40 °C, 0.12 mL/min, estimated dead time 1.8 min; A: water + 20 mM ammonium carbonate + 5 µM medronic acid; B: 10% water + 90% acetonitrile + 2 mM ammonium carbonate + 0.5 µM medronic acid; gradient (min/%B) 0/95 18/55 19/20 22/20 22.5/95 24/95 26/95; details: stereoisomer not certain

Compound | LC retention time
O=C(O)CCC(=O)C(=O)O [2-Oxoglutaric acid] | 12.7 min
Nc1ncnc2c1ncn2C1OC(COP(=O)(O)OP(=O)(O)O)C(O)C1O (stereo not drawn) [ADP] | 12.2 min
Nc1ncnc2c1ncn2C1OC(COP(=O)(O)O)C(O)C1O (stereo not drawn) [AMP] | 9.81 min
Nc1ncnc2c1ncn2C1OC(COP(=O)(O)OP(=O)(O)OP(=O)(O)O)C(O)C1O (stereo not drawn) [ATP] | 13.7 min
CC(=O)SCCNC(=O)CCNC(=O)C(O)C(C)(C)COP(=O)(O)OP(=O)(O)OCC1OC(n2cnc3c(N)ncnc32)C(O)C1OP(=O)(O)O (stereo not drawn) [Acetyl-CoA] | 10 min
Nc1ncnc2c1ncn2C1OC(CO)C(O)C1O (stereo not drawn) [Adenosine] | 4.33 min
NC(N)=NCCCC(N)C(=O)O (stereo not drawn) [Arginine] | 18.9 min
NC(=O)CC(N)C(=O)O (stereo not drawn) [Asparagine] | 9.93 min
O=C(O)CC(O)(CC(=O)O)C(=O)O [Citric acid] | 15 min
CC(C)(COP(=O)(O)OP(=O)(O)OCC1OC(n2cnc3c(N)ncnc32)C(O)C1OP(=O)(O)O)C(O)C(=O)NCCC(=O)NCCS (stereo not drawn) [CoenzymeA] | 11.4 min
O=C(CO)C(O)C(O)C(O)COP(=O)(O)O (stereo not drawn) [Fructose 6-phosphate] | 12.5 min
O=P(O)(O)OCC1OC(O)(COP(=O)(O)O)C(O)C1O (stereo not drawn) [Fructose-1,6-bisphosphate] | 15.9 min
O=C(O)C=CC(=O)O [Fumaric Acid] | 12 min
NC(CCC(=O)NC(CS)C(=O)NCC(=O)O)C(=O)O (stereo not drawn) [GSH] | 9.93 min
NC(CCC(=O)NC(CSSCC(NC(=O)CCC(N)C(=O)O)C(=O)NCC(=O)O)C(=O)NCC(=O)O)C(=O)O (stereo not drawn) [GSSG] | 14.8 min
O=P(O)(O)OC1OC(CO)C(O)C(O)C1O (stereo not drawn) [Glucose-1-phosphate] | 12.5 min

Other lines, results leading:

LC retention time | Compound
13.5 min | O=P(O)(O)OCC1OC(O)C(O)C(O)C1O (stereo not drawn) [Glucose-6-phosphate]
9.95 min | NC(CCC(=O)O)C(=O)O (stereo not drawn) [Glutamic acid]
9.95 min | NC(=O)CCC(N)C(=O)O (stereo not drawn) [Glutamine]
11 min | O=P(O)(O)OCC(O)CO (stereo not drawn) [Glycerol-3-phosphate]
15.7 min | O=C(O)CC(C(=O)O)C(O)C(=O)O (stereo not drawn) [Isocitric acid]
3.31 min | CC(O)C(=O)O (stereo not drawn) [Lactic Acid]
18.5 min | NCCCCC(N)C(=O)O (stereo not drawn) [Lysine]
11.9 min | O=C(O)CC(O)C(=O)O (stereo not drawn) [Malic Acid]
9.3 min | NC(=O)C1=CN(C2OC(COP(=O)(O)OP(=O)(O)OCC3OC(n4cnc5c(N)ncnc54)C(O)C3O)C(O)C2O)C=CC1 (stereo not drawn) [NADH]
15.5 min | NC(=O)C1=CN(C2OC(COP(=O)(O)OP(=O)(O)OCC3OC(n4cnc5c(N)ncnc54)C(OP(=O)(O)O)C3O)C(O)C2O)C=CC1 (stereo not drawn) [NADPH]
14.3 min | NC(=O)c1ccc[n+](C2OC(COP(=O)(O)OP(=O)(O)OCC3OC(n4cnc5c(N)ncnc54)C(OP(=O)(O)O)C3O)C(O)C2O)c1 (stereo not drawn) [NADP]
10.4 min | NC(=O)c1ccc[n+](C2OC(COP(=O)(O)OP(=O)(O)OCC3OC(n4cnc5c(N)ncnc54)C(O)C3O)C(O)C2O)c1 (stereo not drawn) [NAD]
14.5 min | C=C(OP(=O)(O)O)C(=O)O [PEP]
11.3 min | O=P(O)(O)OCC1OC(O)C(O)C1O (stereo not drawn) [Pentose-phosphate]
10.9 min | O=C(O)CCC(=O)O [Succinic Acid]
11.3 min | O=C(CO)COP(=O)(O)O [Triose phosphate]
11.7 min | CC(=O)NC1C(OP(=O)(O)OP(=O)(O)OCC2OC(n3ccc(=O)[nH]c3=O)C(O)C2O)OC(CO)C(O)C1O (stereo not drawn) [UDP-GlcNAc]
